# Earlier results as cited in US8920835B2, “Paliperidone double-layered osmotic pump controlled release tablet and preparation method thereof” (Shanghai Institute of Materia Medica, Chinese Academy of …, priority 2009, dated 2014).
# What was measured:
# [1] = in vivo
smiles,measurement,setting,value
Cc1nc2n(c(=O)c1CCN1CCC(c3noc4cc(F)ccc34)CC1)CCCC2O (stereo not drawn) [Paliperidone],apparent volume of distribution,[1],487 L
same,half-life of the terminal elimination phase,[1],about 23 h
same,plasma protein binding rate,,74%
